Several values for one entry are separate records, joined by “and”; a condition that tells them apart may be missing. Equal entries are not always repeated.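 Exposure lasted 48 hours, with cells grown in 96-well plates and compounds tested at five concentrations. GI50 is the concentration that inhibits growth by half. TGI marks complete inhibition of growth.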
What was measured:
Test in all cases: inhibition of tumour cell growth, NCI panel, 48 h
[1] = tested on: NCI-H226 lung
[2] = tested on: SK-MEL-2 melanoma
[3] = tested on: SNB-19 CNS
[4] = tested on: UACC-257 melanoma
[5] = tested on: OVCAR-8 ovarian
[6] = tested on: NCI-H460 lung
[7] = tested on: SF-539 CNS
[8] = tested on: T-47D breast
[9] = tested on: 786-0 renal
[10] = tested on: HT29 colon

Row | SMILES | TGI [1] | TGI [2] | TGI [3] | TGI [4] | TGI [5] | TGI [6] | TGI [7] | TGI [8] | TGI [9] | TGI [10] | GI50 [10] | GI50 [1] | GI50 [2] | GI50 [3] | GI50 [4] | GI50 [5] | GI50 [6] | GI50 [7]
1 | O=[N+]([O-])c1ccc2c(c1)n1c(N3CCCC3)[n+]3ccccc3c1c1c3cccc[n+]3c(N3CCCC3)n21 | > 100 µM | > 100 µM | > 100 µM | > 100 µM | > 100 µM | > 100 µM | > 100 µM | > 100 µM | > 100 µM |  |  |  |  |  |  |  |  | 
2 | CCOC(=O)CCC(NC(=O)OCc1ccccc1)C(=O)NC(CCC(=O)OCC)C(=O)NC(CCC(=O)OCC)C(=O)NNC(=O)OC(C)(C)C (stereo not given) | > 100 µM | > 100 µM | > 100 µM | > 100 µM | > 100 µM | > 100 µM |  |  | > 100 µM | > 100 µM |  |  |  |  |  |  |  | 
3 | Cc1nc2c(n1-c1ccccc1)C(=O)c1ccccc1C2=O | > 100 µM | > 100 µM | > 100 µM | 51.5 µM | > 100 µM | > 100 µM | > 100 µM |  | > 100 µM | > 100 µM |  |  |  |  |  |  |  | 
4 | CC(C#N)N(CCc1ccccc1)C(=O)c1ccccc1 (stereo not given) | > 100 µM | > 100 µM | > 100 µM | > 100 µM | > 100 µM |  | > 100 µM | > 100 µM | > 100 µM | > 100 µM |  |  |  |  |  |  |  | 
5 | CC(C)(CN1CCCCC1)C(/C=C/c1ccccc1)=N\NC(=O)N/N=C(/C=C/c1ccccc1)C(C)(C)CN1CCCCC1 | 5.27 µM | 3.73 µM | 3.95 µM | 3.1 µM | 3.38 µM | 2.67 µM |  |  | 2.78 µM | 2.53 µM |  |  |  |  |  |  |  | 
6 | CS(=O)(=O)[O-].CS(=O)(=O)[O-].NC1CCCCC1N.[Pt+4] (stereo not given) | > 100 µM | > 100 µM | > 100 µM | > 100 µM | > 100 µM | > 100 µM | > 100 µM |  |  | > 100 µM | 62.3 µM | 39.2 µM | > 100 µM | > 100 µM | > 100 µM | > 74 µM | 47.2 µM | > 100 µM
7 | COC(=O)/C=C1\C(=O)C=C2[C@@H]3C[C@H]4C[C@H](CC[C@@]4(C)N21)C3(C)NC(C)=O (stereo not given in full) | 55.1 µM | 38.9 µM | > 56.7 µM | 52.5 µM | 51.2 µM | > 100 µM | 9.54 µM | > 27.8 µM | 14.3 µM | 28.2 µM |  |  |  |  |  |  |  | 
8 | CC1=NN2C(=N)/C(=C/c3ccccc3)C(=O)N=C2S1 | > 100 µM | > 100 µM | > 100 µM | > 100 µM | > 100 µM | > 100 µM | > 100 µM | > 100 µM | > 100 µM | > 100 µM |  |  |  |  |  |  |  | 
9 | O=NN1CCCS1(=O)=O | > 100 µM |  | > 100 µM | > 100 µM | > 100 µM | > 100 µM | > 100 µM | > 100 µM | > 100 µM | > 100 µM |  |  |  |  |  |  |  | 
10 | COc1ccc(C2SCC(=O)N2NC(=O)C(C)Oc2ccc(Cl)cc2Cl)cc1 (stereo not given) | 33.6 µM | > 100 µM | > 100 µM | > 100 µM | > 100 µM | > 100 µM | 35.9 µM | > 100 µM | 41.7 µM | > 100 µM |  |  |  |  |  |  |  | 
11 | Cc1c(C#N)c(=N)oc2ccccc12 | > 100 µM | > 100 µM | > 100 µM | > 100 µM | > 100 µM | > 100 µM | > 100 µM | > 100 µM | > 100 µM | > 100 µM |  |  |  |  |  |  |  | 
12 | COc1ccc(NC(=O)CC(=O)N2N=C(N(c3ccccc3)c3ccccc3)CC2c2ccccc2)cc1 (stereo not given) | > 100 µM | > 100 µM | > 100 µM | > 100 µM | > 100 µM |  | > 100 µM | > 100 µM | > 100 µM | > 100 µM |  |  |  |  |  |  |  | 
13 | O=c1nc2ccc3sc4ccccc4c(=O)c3n2c(=O)[nH]1 | > 100 µM |  | > 100 µM | > 100 µM | > 100 µM | > 100 µM | > 100 µM |  | > 100 µM | > 100 µM |  |  |  |  |  |  |  | 
14 | NC(=S)NNC(=S)NC(=O)c1ccco1 | > 10 µM | > 10 µM | > 10 µM | > 10 µM | > 10 µM | > 10 µM |  | > 10 µM | > 10 µM | > 10 µM |  |  |  |  |  |  |  | 
15 | CC1CN=C(c2ccc(CN3CCC(C4CCN(Cc5ccc(C6=NCC(C)N6)cc5)CC4)CC3)cc2)N1 (stereo not given) |  | 36 µM | 75.8 µM | 52.4 µM | > 100 µM | 37.3 µM | 37.7 µM | 49.4 µM | 34.1 µM | 42.7 µM |  |  |  |  |  |  |  | 
16 | COc1cc2oc(=O)cc(C)c2cc1OC | > 100 µM | > 100 µM | > 100 µM | > 100 µM | > 100 µM |  | > 100 µM |  | > 100 µM | > 100 µM |  |  |  |  |  |  |  | 
17 | CCC1(OC(=O)CN)C(=O)OCc2c1cc1n(c2=O)Cc2cc3cc4c(cc3nc2-1)OCO4 (stereo not given) | 0.201 µM and 0.299 µM | 3.15 µM and 1.07 µM | 27.3 µM and 3.14 µM | 0.281 µM and 0.603 µM |  | 0.0159 µM and 0.0389 µM | 0.0161 µM and 0.0165 µM |  |  | 0.739 µM and 0.281 µM | 0.0245 µM and 0.0171 µM | 0.024 µM and < 0.01 µM | 0.135 µM and 0.221 µM | < 0.01 µM | < 0.01 µM and 0.0484 µM |  | < 0.01 µM | < 0.01 µM
18 | C[C@]12CC[C@H]3[C@@H](CCC4=C(Br)C(=O)C=C[C@@]43O)[C@@H]1CCC2=O | > 100 µM | > 100 µM | > 100 µM | 63.8 µM | 80.2 µM | 63.4 µM | > 100 µM |  | 81.2 µM | > 100 µM |  |  |  |  |  |  |  | 
19 | COC(=O)[C@@]1(C)CCC[C@]2(C(=O)O)C3Cc4occc4[C@H](C)[C@@H]3CCC21 (stereo not given in full) | > 100 µM | > 100 µM | > 100 µM |  | > 100 µM | > 100 µM | > 100 µM | > 100 µM | > 100 µM | 91.8 µM |  |  |  |  |  |  |  | 
20 | Cn1c(=O)n(CC2CS2)c2ccccc21 (stereo not given) | > 100 µM | > 100 µM | > 100 µM |  |  | > 100 µM | > 100 µM |  |  | > 100 µM |  |  |  |  |  |  |  | 
21 | N#C/C(=C1/c2cc([N+](=O)[O-])ccc2-c2c1cc([N+](=O)[O-])cc2[N+](=O)[O-])N1CCCCC1 | > 100 µM | > 100 µM | > 100 µM | > 100 µM | > 100 µM |  |  | > 100 µM | > 100 µM | > 100 µM |  |  |  |  |  |  |  | 
22 | C[PH+](c1nc2ccccc2nc1[PH+](C)C(C)(C)C)C(C)(C)C.C[PH+](c1nc2ccccc2nc1[PH+](C)C(C)(C)C)C(C)(C)C.[Au+].[Cl-] (stereo not given) | 2.44 µM | 0.0986 µM | 1.7 µM | 0.278 µM | 1.88 µM |  | 1.14 µM |  |  |  | 0.0294 µM | 0.0539 µM | 0.0318 µM | 0.0453 µM | 0.0359 µM | 0.0358 µM |  | 0.053 µM
